# Columns and labels:
# Format in all cases: nucleic-acid assay
# Nucleic Acid [1] = experiment: Stabilization of 5'-AGAGAGACAGAAAAA-3' ssDNA sequence assessed as melting temperature at pH7 using 100 mM NaCl
# Nucleic Acid [2] = experiment: Stabilization of 5'-AGAGAGATAGAAAAA-3' ssDNA sequence assessed as melting temperature at pH7 using 100 mM NaCl
# Nucleic Acid [3] = experiment: Stabilization of 5'-AGAGAGAGAGAAAAA-3' ssDNA sequence assessed as melting temperature at pH7 using 100 mM NaCl
# Nucleic Acid [4] = experiment: Stabilization of 5'-AGAGAGAAAGAAAAA-3' ssDNA sequence assessed as melting temperature at pH7 using 100 mM NaCl
Structure (SMILES),Tm (Nucleic Acid [1]),Tm (Nucleic Acid [2]),Tm (Nucleic Acid [3]),Tm (Nucleic Acid [4])
Cc1cn([C@H]2C[C@H](OP(=O)(O)OC[C@H]3O[C@@H](n4cc(C)c(=O)[nH]c4=O)C[C@@H]3OP(=O)(O)OC[C@H]3O[C@@H](n4cc(C)c(N)nc4=O)C[C@@H]3OP(=O)(O)OC[C@H]3O[C@@H](n4cc(C)c(=O)[nH]c4=O)C[C@@H]3O)[C@@H](COP(=O)(O)O[C@H]3C[C@H](n4cc(C)c(=O)[nH]c4=O)O[C@@H]3COP(=O)(O)O[C@H]3C[C@H](n4cc(C)c(N)nc4=O)O[C@@H]3COP(=O)(O)O[C@H]3C[C@H](n4cc(C)c(=O)[nH]c4=O)O[C@@H]3COP(=O)(O)O[C@H]3C[C@H](n4cc(C)c(=O)[nH]c4=O)O[C@@H]3COP(=O)(O)O[C@H]3C[C@H](n4cc(C)c(=O)[nH]c4=O)O[C@@H]3COP(=O)(O)O[C@H]3C[C@H](n4cc(C)c(N)nc4=O)O[C@@H]3COP(=O)(O)O[C@H]3C[C@H](n4cc(C)c(=O)[nH]c4=O)O[C@@H]3COP(=O)(O)O[C@H]3C[C@H](n4cc(C)c(=O)[nH]c4=O)O[C@@H]3COP(=O)(O)O[C@H]3C[C@H](n4cc(C)c(=O)[nH]c4=O)O[C@@H]3COP(=O)(O)O[C@H]3C[C@H](n4cc(C)c(=O)[nH]c4=O)O[C@@H]3COP(=O)(O)O[C@H]3C[C@H](n4cc(C)c(=O)[nH]c4=O)O[C@@H]3CO)O2)c(=O)nc1N,39 °C,42 °C,42 °C,52 °C
Cc1cn([C@H]2C[C@H](OP(=O)(O)OC[C@H]3O[C@@H](n4cc(C)c(=O)[nH]c4=O)C[C@@H]3OP(=O)(O)OC[C@H]3O[C@@H](n4cc(C)c(N)nc4=O)C[C@@H]3OP(=O)(O)OC[C@H]3O[C@@H](n4cc(C)c(=O)[nH]c4=O)C[C@@H]3OP(=O)(O)OC[C@H]3O[C@@H](n4cc(C)c(N)nc4=O)C[C@@H]3OP(=O)(O)OC[C@H]3O[C@@H](n4cc(C)c(=O)[nH]c4=O)C[C@@H]3O)[C@@H](COP(=O)(O)O[C@H]3C[C@H](n4cc(C)c(=O)[nH]c4=O)O[C@@H]3COP(=O)(O)O[C@H]3C[C@H](c4cn(-c5ccc(C(=O)O)cc5)nn4)O[C@@H]3COP(=O)(O)O[C@H]3C[C@H](n4cc(C)c(=O)[nH]c4=O)O[C@@H]3COP(=O)(O)O[C@H]3C[C@H](n4cc(C)c(N)nc4=O)O[C@@H]3COP(=O)(O)O[C@H]3C[C@H](n4cc(C)c(=O)[nH]c4=O)O[C@@H]3COP(=O)(O)O[C@H]3C[C@H](n4cc(C)c(=O)[nH]c4=O)O[C@@H]3COP(=O)(O)O[C@H]3C[C@H](n4cc(C)c(=O)[nH]c4=O)O[C@@H]3COP(=O)(O)O[C@H]3C[C@H](n4cc(C)c(=O)[nH]c4=O)O[C@@H]3COP(=O)(O)O[C@H]3C[C@H](n4cc(C)c(=O)[nH]c4=O)O[C@@H]3CO)O2)c(=O)nc1N,33 °C,33 °C,38 °C,33 °C
Cc1cn([C@H]2C[C@H](OP(=O)(O)OC[C@H]3O[C@@H](n4cc(C)c(=O)[nH]c4=O)C[C@@H]3OP(=O)(O)OC[C@H]3O[C@@H](n4cc(C)c(N)nc4=O)C[C@@H]3OP(=O)(O)OC[C@H]3O[C@@H](n4cc(C)c(=O)[nH]c4=O)C[C@@H]3OP(=O)(O)OC[C@H]3O[C@@H](n4cc(C)c(N)nc4=O)C[C@@H]3OP(=O)(O)OC[C@H]3O[C@@H](n4cc(C)c(=O)[nH]c4=O)C[C@@H]3O)[C@@H](COP(=O)(O)O[C@H]3C[C@H](n4cc(C)c(=O)[nH]c4=O)O[C@@H]3COP(=O)(O)O[C@H]3C[C@H](c4cn(CCCCCCCCCCO)nn4)O[C@@H]3COP(=O)(O)O[C@H]3C[C@H](n4cc(C)c(=O)[nH]c4=O)O[C@@H]3COP(=O)(O)O[C@H]3C[C@H](n4cc(C)c(N)nc4=O)O[C@@H]3COP(=O)(O)O[C@H]3C[C@H](n4cc(C)c(=O)[nH]c4=O)O[C@@H]3COP(=O)(O)O[C@H]3C[C@H](n4cc(C)c(=O)[nH]c4=O)O[C@@H]3COP(=O)(O)O[C@H]3C[C@H](n4cc(C)c(=O)[nH]c4=O)O[C@@H]3COP(=O)(O)O[C@H]3C[C@H](n4cc(C)c(=O)[nH]c4=O)O[C@@H]3COP(=O)(O)O[C@H]3C[C@H](n4cc(C)c(=O)[nH]c4=O)O[C@@H]3CO)O2)c(=O)nc1N,39 °C,39 °C,39 °C,35 °C
C#C[C@H]1C[C@H](OP(=O)(O)OC[C@H]2O[C@@H](n3cc(C)c(=O)[nH]c3=O)C[C@@H]2OP(=O)(O)OC[C@H]2O[C@@H](n3cc(C)c(N)nc3=O)C[C@@H]2OP(=O)(O)OC[C@H]2O[C@@H](n3cc(C)c(=O)[nH]c3=O)C[C@@H]2OP(=O)(O)OC[C@H]2O[C@@H](n3cc(C)c(N)nc3=O)C[C@@H]2OP(=O)(O)OC[C@H]2O[C@@H](n3cc(C)c(=O)[nH]c3=O)C[C@@H]2OP(=O)(O)OC[C@H]2O[C@@H](n3cc(C)c(N)nc3=O)C[C@@H]2OP(=O)(O)OC[C@H]2O[C@@H](n3cc(C)c(=O)[nH]c3=O)C[C@@H]2O)[C@@H](COP(=O)(O)O[C@H]2C[C@H](n3cc(C)c(=O)[nH]c3=O)O[C@@H]2COP(=O)(O)O[C@H]2C[C@H](n3cc(C)c(N)nc3=O)O[C@@H]2COP(=O)(O)O[C@H]2C[C@H](n3cc(C)c(=O)[nH]c3=O)O[C@@H]2COP(=O)(O)O[C@H]2C[C@H](n3cc(C)c(=O)[nH]c3=O)O[C@@H]2COP(=O)(O)O[C@H]2C[C@H](n3cc(C)c(=O)[nH]c3=O)O[C@@H]2COP(=O)(O)O[C@H]2C[C@H](n3cc(C)c(=O)[nH]c3=O)O[C@@H]2COP(=O)(O)O[C@H]2C[C@H](n3cc(C)c(=O)[nH]c3=O)O[C@@H]2CO)O1,29 °C,31 °C,32 °C,32 °C
Cc1cn([C@H]2C[C@H](OP(=O)(O)OC[C@H]3O[C@@H](n4cc(C)c(=O)[nH]c4=O)C[C@@H]3OP(=O)(O)OC[C@H]3O[C@@H](n4cc(C)c(N)nc4=O)C[C@@H]3OP(=O)(O)OC[C@H]3O[C@@H](n4cc(C)c(=O)[nH]c4=O)C[C@@H]3OP(=O)(O)OC[C@H]3O[C@@H](n4cc(C)c(N)nc4=O)C[C@@H]3OP(=O)(O)OC[C@H]3O[C@@H](n4cc(C)c(=O)[nH]c4=O)C[C@@H]3O)[C@@H](COP(=O)(O)O[C@H]3C[C@H](n4cc(C)c(=O)[nH]c4=O)O[C@@H]3COP(=O)(O)O[C@H]3C[C@H](c4cn(Cc5ccccc5)nn4)O[C@@H]3COP(=O)(O)O[C@H]3C[C@H](n4cc(C)c(=O)[nH]c4=O)O[C@@H]3COP(=O)(O)O[C@H]3C[C@H](n4cc(C)c(N)nc4=O)O[C@@H]3COP(=O)(O)O[C@H]3C[C@H](n4cc(C)c(=O)[nH]c4=O)O[C@@H]3COP(=O)(O)O[C@H]3C[C@H](n4cc(C)c(=O)[nH]c4=O)O[C@@H]3COP(=O)(O)O[C@H]3C[C@H](n4cc(C)c(=O)[nH]c4=O)O[C@@H]3COP(=O)(O)O[C@H]3C[C@H](n4cc(C)c(=O)[nH]c4=O)O[C@@H]3COP(=O)(O)O[C@H]3C[C@H](n4cc(C)c(=O)[nH]c4=O)O[C@@H]3CO)O2)c(=O)nc1N,34 °C,33 °C,38 °C,32 °C

# Second part, the compound after the results:
Tm (Nucleic Acid [1]),Tm (Nucleic Acid [2]),Tm (Nucleic Acid [3]),Tm (Nucleic Acid [4]),Structure (SMILES)
36 °C,38 °C,42 °C,39 °C,Cc1ccc(-n2cc([C@H]3C[C@H](OP(=O)(O)OC[C@H]4O[C@@H](n5cc(C)c(=O)[nH]c5=O)C[C@@H]4OP(=O)(O)OC[C@H]4O[C@@H](n5cc(C)c(N)nc5=O)C[C@@H]4OP(=O)(O)OC[C@H]4O[C@@H](n5cc(C)c(=O)[nH]c5=O)C[C@@H]4OP(=O)(O)OC[C@H]4O[C@@H](n5cc(C)c(N)nc5=O)C[C@@H]4OP(=O)(O)OC[C@H]4O[C@@H](n5cc(C)c(=O)[nH]c5=O)C[C@@H]4OP(=O)(O)OC[C@H]4O[C@@H](n5cc(C)c(N)nc5=O)C[C@@H]4OP(=O)(O)OC[C@H]4O[C@@H](n5cc(C)c(=O)[nH]c5=O)C[C@@H]4O)[C@@H](COP(=O)(O)O[C@H]4C[C@H](n5cc(C)c(=O)[nH]c5=O)O[C@@H]4COP(=O)(O)O[C@H]4C[C@H](n5cc(C)c(N)nc5=O)O[C@@H]4COP(=O)(O)O[C@H]4C[C@H](n5cc(C)c(=O)[nH]c5=O)O[C@@H]4COP(=O)(O)O[C@H]4C[C@H](n5cc(C)c(=O)[nH]c5=O)O[C@@H]4COP(=O)(O)O[C@H]4C[C@H](n5cc(C)c(=O)[nH]c5=O)O[C@@H]4COP(=O)(O)O[C@H]4C[C@H](n5cc(C)c(=O)[nH]c5=O)O[C@@H]4COP(=O)(O)O[C@H]4C[C@H](n5cc(C)c(=O)[nH]c5=O)O[C@@H]4CO)O3)nn2)cc1
34 °C,33 °C,37 °C,34 °C,Cc1cn([C@H]2C[C@H](OP(=O)(O)OC[C@H]3O[C@@H](n4cc(C)c(=O)[nH]c4=O)C[C@@H]3OP(=O)(O)OC[C@H]3O[C@@H](n4cc(C)c(N)nc4=O)C[C@@H]3OP(=O)(O)OC[C@H]3O[C@@H](n4cc(C)c(=O)[nH]c4=O)C[C@@H]3OP(=O)(O)OC[C@H]3O[C@@H](n4cc(C)c(N)nc4=O)C[C@@H]3OP(=O)(O)OC[C@H]3O[C@@H](n4cc(C)c(=O)[nH]c4=O)C[C@@H]3O)[C@@H](COP(=O)(O)O[C@H]3C[C@H](n4cc(C)c(=O)[nH]c4=O)O[C@@H]3COP(=O)(O)O[C@H]3C[C@H](c4cn(C5CCCCC5)nn4)O[C@@H]3COP(=O)(O)O[C@H]3C[C@H](n4cc(C)c(=O)[nH]c4=O)O[C@@H]3COP(=O)(O)O[C@H]3C[C@H](n4cc(C)c(N)nc4=O)O[C@@H]3COP(=O)(O)O[C@H]3C[C@H](n4cc(C)c(=O)[nH]c4=O)O[C@@H]3COP(=O)(O)O[C@H]3C[C@H](n4cc(C)c(=O)[nH]c4=O)O[C@@H]3COP(=O)(O)O[C@H]3C[C@H](n4cc(C)c(=O)[nH]c4=O)O[C@@H]3COP(=O)(O)O[C@H]3C[C@H](n4cc(C)c(=O)[nH]c4=O)O[C@@H]3COP(=O)(O)O[C@H]3C[C@H](n4cc(C)c(=O)[nH]c4=O)O[C@@H]3CO)O2)c(=O)nc1N

# Reference: ChEMBL document CHEMBL1795250, “Synthesis and base-pairing properties of C-nucleotides having 1-substituted 1H-1,2,3-triazoles” (Bioorg Med Chem Lett, 2009)
